The text below walks through data of PMC10398414, “Isolation and characterization of β-transducin repeat-containing protein ligands screened using a high-throughput screening system” (Oncology Research, 2023).

The target in series [1] is SKP2 (Homo sapiens, UniProt Q13309). In words: Binding to SKP2 (data not shown).
Series [2] addresses polo-box domain of Plk1 (Homo sapiens, UniProt P53350). The series can be described thus: Binding to polo-box domain of Plk1 (data not shown).
Series [3] has as its target SCF^β-TrCP1 (Homo sapiens, UniProt Q9Y297). In words: In vitro ubiquitination assay (GST-Wee1KR substrate, immunoblotting). Format: biochemical. The following applies: immunoblots quantitated by ImageJ. The method, then:
Components of SCF complex (SKP1, Cul1, Rbx1, and hemagglutinin (HA)-tagged β-TrCP) were expressed in HEK293T cells. Anti-HA antibody was added into the SCF complexes expressed HEK 293T cell lysate and rotated at 4°C for 1 h. Aliquots of this mixture were added to protein G beads and rotated at 4°C for 30 min. After washing the beads in cell lysis buffer three times, the tube was centrifuged at 20,400 × g for 5 min and the supernatant was discarded. The protein on the beads was used as recombinant SCF^β-TrCP complexes. Aliquots of SCF complexes bound on the beads were then added to ubiquitination reactions (10 mM Tris pH = 7.5, 5 mM MgCl2, 1 mM DTT, 1 mM ATP, 20 mM creatine phosphate, 0.1 mg/mL creatine kinase, 5 mM NaF, 1 mM Na3VO4, 2 mg/mL ubiquitin, 0.5 μg E1 enzyme, 2 μg E2 enzyme) in a final volume of 30 µL. Compounds of 100 µM final concentration were added to reactions, and GST-Wee1KR was added as substrate 15 min later. The reaction mixtures were incubated at 37°C for 2 h and were further examined by immunoblotting.
Immunoblotting followed by in vitro ubiquitination assay was performed using anti-human Wee1A [30]. Immunoblotting in the analysis of protein degradation was performed using anti-phospho-β-catenin (Ser33/37/Thr41) antibody (1:1000, Cell Signaling Technology, Danvers, MA, USA), anti-phospho-IκBα (Ser32) (14D4), Rabbit mAb (1:1000, Cell Signaling Technology), anti-β-catenin (D10A8) (1:1000, Cell Signaling Technology), anti-IκBα antibody (1:1000, Cell Signaling Technology), and Goat polyclonal anti-rabbit IgG antibody (1:5000, Proteintech, Am Klopferspitz, Planegg-Martinsried, Germany). The transferred membrane was incubated with specific antibody, then detected using Super Signal West Pico chemiluminescent substrate (Thermo Fisher Scientific) and FUSION SOLO S (VILBER LOURMAT/MS equipment, Zi Sud torcy, Marne-la-vallee, France). The quantification of immunoblotting results was performed using ImageJ software.

Series [4] relates to HeLa cells. In words: Cytotoxicity / cell death. Particulars: data not shown. Format: cell-based.
Series [5] deals with 14-3-3 proteins. In words: Binding to 14-3-3 proteins (data not shown).
Series [6] deals with Pin1 (Homo sapiens, UniProt Q13526). In words: Binding to Pin1 (data not shown).
Chain of Pin1 (Q13526 whole entry, species assumed): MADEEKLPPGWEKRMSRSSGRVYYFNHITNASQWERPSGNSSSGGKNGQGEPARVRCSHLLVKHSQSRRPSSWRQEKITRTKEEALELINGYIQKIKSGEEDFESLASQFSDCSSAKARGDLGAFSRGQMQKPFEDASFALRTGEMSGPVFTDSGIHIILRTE
For series [7], the system named is NF-κB transcription activity in HeLa cells. The series can be described thus: NF-κB luciferase reporter assay (pGL-4.32), TNF-α induced. Format: cell-based. The method, then:
For NF-κB transcription activity, PGL-4.32 contains five copies of the NF-κB response element, which is responsible for the transcription of the luciferase reporter gene, with pRL-SV40 as the internal control. NF-κB transcription activity was determined by firefly luciferase expression and normalized by renilla luciferase level. pGL-4.32 reporter plasmids (Promega) and pRL-sv40 renilla luciferase reporter (Promega) were co-transfected into HeLa cells using Lipofectamine 3000 reagent kit. Subsequently, 24 h after transfection, cells were cultured with the compounds of different dilutions for another 24 h. Furthermore, TNF-α was added, and the plates were cultured for another 4 h. The cells were lysed, and the luminescence was measured using the Luciferase Assay System. A minimum of three samples were taken for each sample.
(In general: A reporter such as luciferase makes a cellular process visible.)

In general, IC50 refers to the concentration needed to halve the response being measured. High values mean lower potency, low ones higher potency.

The structures appear in SMILES notation.

Chain of SKP2 (Q13309 whole entry, species assumed, the tested form may be a part): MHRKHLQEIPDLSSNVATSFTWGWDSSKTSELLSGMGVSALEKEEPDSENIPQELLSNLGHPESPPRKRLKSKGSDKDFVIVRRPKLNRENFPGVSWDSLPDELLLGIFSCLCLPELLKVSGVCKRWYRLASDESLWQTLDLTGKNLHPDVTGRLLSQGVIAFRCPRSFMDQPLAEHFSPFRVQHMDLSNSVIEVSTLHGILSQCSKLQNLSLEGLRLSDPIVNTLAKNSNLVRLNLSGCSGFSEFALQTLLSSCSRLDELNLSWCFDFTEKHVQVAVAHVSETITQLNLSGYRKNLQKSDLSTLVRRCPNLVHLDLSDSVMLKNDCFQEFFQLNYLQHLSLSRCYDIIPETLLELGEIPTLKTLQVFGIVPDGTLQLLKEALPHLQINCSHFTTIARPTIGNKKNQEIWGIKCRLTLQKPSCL
Chain of polo-box domain of Plk1 (P53350 326-603 limits assumed): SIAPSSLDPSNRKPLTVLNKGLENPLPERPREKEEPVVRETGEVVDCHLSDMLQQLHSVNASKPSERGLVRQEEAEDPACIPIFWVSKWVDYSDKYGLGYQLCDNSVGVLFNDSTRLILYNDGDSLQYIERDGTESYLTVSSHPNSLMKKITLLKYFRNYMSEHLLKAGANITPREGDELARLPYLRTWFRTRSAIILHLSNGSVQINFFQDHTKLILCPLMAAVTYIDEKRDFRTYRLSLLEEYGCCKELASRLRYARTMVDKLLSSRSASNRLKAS
Chain of SCF^β-TrCP1 (Q9Y297 whole entry): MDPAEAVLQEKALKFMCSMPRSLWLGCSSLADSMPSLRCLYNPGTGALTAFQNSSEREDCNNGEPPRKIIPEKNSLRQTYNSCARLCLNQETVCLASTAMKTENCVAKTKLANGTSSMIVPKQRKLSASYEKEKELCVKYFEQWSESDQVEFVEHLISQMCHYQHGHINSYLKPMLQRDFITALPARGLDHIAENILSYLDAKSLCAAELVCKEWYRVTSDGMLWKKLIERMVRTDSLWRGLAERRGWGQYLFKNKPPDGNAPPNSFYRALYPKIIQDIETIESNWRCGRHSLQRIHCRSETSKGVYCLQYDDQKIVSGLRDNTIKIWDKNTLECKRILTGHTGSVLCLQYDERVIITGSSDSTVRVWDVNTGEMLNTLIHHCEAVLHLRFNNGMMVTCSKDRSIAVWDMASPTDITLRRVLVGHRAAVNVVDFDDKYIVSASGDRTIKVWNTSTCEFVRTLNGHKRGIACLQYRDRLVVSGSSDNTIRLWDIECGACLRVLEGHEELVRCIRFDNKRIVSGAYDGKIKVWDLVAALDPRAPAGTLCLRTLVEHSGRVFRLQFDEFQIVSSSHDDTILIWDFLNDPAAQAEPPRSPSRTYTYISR
Chain of SCF^β-TrCP1 (P63208 whole entry partner): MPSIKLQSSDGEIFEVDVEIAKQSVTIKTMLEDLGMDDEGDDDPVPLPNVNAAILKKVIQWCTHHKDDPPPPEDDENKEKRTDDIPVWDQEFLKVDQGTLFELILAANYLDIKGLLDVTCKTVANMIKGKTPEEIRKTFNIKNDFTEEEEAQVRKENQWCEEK
Chain of SCF^β-TrCP1 (Q13616 whole entry partner): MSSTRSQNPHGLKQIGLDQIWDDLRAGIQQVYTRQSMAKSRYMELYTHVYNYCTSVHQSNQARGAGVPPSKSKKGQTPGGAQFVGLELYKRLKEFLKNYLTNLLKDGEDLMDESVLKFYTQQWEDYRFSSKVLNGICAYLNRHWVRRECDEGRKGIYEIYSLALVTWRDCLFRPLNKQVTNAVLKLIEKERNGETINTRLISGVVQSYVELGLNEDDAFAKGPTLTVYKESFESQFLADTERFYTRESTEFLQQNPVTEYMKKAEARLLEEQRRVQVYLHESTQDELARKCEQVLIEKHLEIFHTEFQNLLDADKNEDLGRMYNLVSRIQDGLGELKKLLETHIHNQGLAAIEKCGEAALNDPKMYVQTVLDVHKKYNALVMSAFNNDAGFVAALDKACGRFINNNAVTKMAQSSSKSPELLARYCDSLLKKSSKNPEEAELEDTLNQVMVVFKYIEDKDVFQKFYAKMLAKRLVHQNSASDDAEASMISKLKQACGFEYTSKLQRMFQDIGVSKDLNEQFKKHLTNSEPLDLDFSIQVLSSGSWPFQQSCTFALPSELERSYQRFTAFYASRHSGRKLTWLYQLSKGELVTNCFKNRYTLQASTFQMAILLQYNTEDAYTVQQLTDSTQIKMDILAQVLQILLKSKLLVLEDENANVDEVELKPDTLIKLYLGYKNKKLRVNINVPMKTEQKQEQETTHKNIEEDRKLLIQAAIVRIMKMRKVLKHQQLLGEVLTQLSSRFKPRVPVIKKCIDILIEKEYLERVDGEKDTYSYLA
Chain of SCF^β-TrCP1 (P62877 whole entry partner): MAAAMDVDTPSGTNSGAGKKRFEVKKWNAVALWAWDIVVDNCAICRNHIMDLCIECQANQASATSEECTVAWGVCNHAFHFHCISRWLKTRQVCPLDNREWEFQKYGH

Take `Cc1cc(O)c(C(=O)/C=C/c2cccc(O)c2)c(=O)o1` [NPD5943]: the “binding to SKP2” value in series [1] is recorded as “did not bind to SKP2 at all”. In series [2], the “binding to polo-box domain of Plk1” value is listed as “did not observe any binding”. In addition, the IC50 in series [3] amounted to 30 µM. Also, the non-specific cytotoxicity result in series [4] is reported as “cytotoxicity only at high concentration”. In series [5], the “binding to 14-3-3 proteins” value is “did not observe any binding”. In series [6], the “binding to Pin1” value is “did not observe any binding”. Also, the “NF-κB transcription, % of that of the control group (DMSO, TNF-α)” value in series [7] (20 μM) is recorded as “approximately 20%”. Further, in series [7] (24 h compound then TNF-α 4 h), the “TNF-α induced NF-κB activation of transcription” value is “reduced NF-κB activation dose-dependently”.
